According to US9387206B2, “Therapeutic approaches for treating Alzheimer's disease” (PHARNEXT, priority 2009, dated 2016):

Assays:
[1] = system: rat primary cortical neurons; experiment: Neurite outgrowth in beta-amyloid (Aβ25-35) intoxicated rat primary cortical neuron culture; assay type: cell-based; conditions: Aβ25-35 20 μM, 2 days; drug added 1 hour before
[2] = system: rat primary cortical neurons; experiment: LDH release, human Aβ1-42 toxicity on rat primary cortical cells; assay type: cell-based; conditions: 0.32 nM alone; Aβ1-42 2.5 μM
Procedure: Primary rat cortical neurons are cultured as described previously.
Briefly, Aβ1-42 peptide was reconstituted in defined culture medium at 40 μM (mother solution) and was slowly shacked at +37° C. for 3 days in the dark for aggregation. The control medium was prepared in the same conditions.
After 10 days of neuron culture, the drug was solved in culture medium (+0.1% DMSO) and then pre-incubated with neurons for 1 hour before the Aβ1-42 application (in a final volume per culture well of 100 μl). […] Cortical neurons were intoxicated for 24 hours. Three separate cultures were performed per condition, 6 wells per condition.
Estradiol-β at 100 and 150 nM were used as a reference test compound and BDNF at 50 ng/ml was used as a positive control. Three separate cultures were performed per condition, […].
Estradiol-β and BDNF were solved in culture medium and pre-incubated for 1 h before the aggregated amyloid-β1-42 application.
Lactate Dehydrogenase (LDH) Activity Assay
This colorimetric assay for the quantification of cell toxicity is based on the measurement of lactate dehydrogenase (LDH) activity released from the cytosol of dying cells into the supernatant.
All values are expressed as mean±s.e.mean of the 3 cultures (n=6 per condition). Statistical analyses were done on the different conditions (ANOVA followed by the Dunnett's test when it was allowed, Statview software version 5.0).

[3] = system: NGF-differentiated PC12 cells; experiment: MTT viability of NGF-differentiated PC12 after Aβ25-35 intoxication; assay type: cell-based, rat; conditions: Aβ25-35 10 μM, 24 hours, drug added 1 hour before
Procedure: PC12 (Pheochromocytoma Rat, ATCC ref: CRL-1721) cells from [NT] CRL-1721) were rapidly thawed in 37° C. water. The supernatant was immediately put in 9 ml of a PC12 proliferation medium containing Dulbecco's modified Eagle's medium DMEM-F12 (Pan Biotech ref: P04-41450) with 15% heat-inactivated horse serum (Invitrogen ref: 16050-130), 2.5% of fetal bovine serum (FBS; Invitrogen ref: 16000-036), 1% of Penicillin 10,000 U/ml and Streptomycin 10 mg/ml (PS; Pan Biotech ref: P06-07100) and 1% of L-glutamine 200 mM (Pan Biotech ref: P04-80100). Cells were centrifuged (800 rounds/min, 4° C. for 5 min) and added in 5 ml PC12 proliferation medium, viable cells were counted with a Malassez cell using the […] exclusion test (Sigma). Then the cells were seeded at 3.10^4 cells per cm^2 in PC12 proliferation medium in 75 cm^2 plastic flasks (Greiner Ref: 658175) precoated with poly-L-lysine (10 μg/ml, Sigma Ref: P2636). Medium was changed every other day. After 3 days of culture, when cells reached 80% of confluence, they were washed in HBSS without calcium and magnesium (Pan Biotech Ref: […] P10-023100). The enzymatic reaction was stopped with PC12 proliferation medium added by 0.5 mg/ml of DNAse 1 grade 2 (Pan Biotech Ref: 760-37780100). […]

[4] = system: rat primary cortical neurons; experiment: LDH release in Aβ25-35 intoxicated rat primary cortical neuron culture; assay type: cell-based; conditions: Aβ25-35 20 μM, 2 days; drug added 1 hour before
Procedure: Primary rat cortical neurons are cultured as described by Singer et al., 1999. Briefly pregnant female rats of 15 days gestation are killed by cervical dislocation (Rats Wistar; Janvier) and the foetuses removed from the uterus. The cortexes are removed and placed in ice-cold medium of Leibovitz (L15; Invitrogen) containing 1% of Penicillin-Streptomycin (PS; Invitrogen) and 1% of bovine serum albumin (BSA; Sigma). Cortexes are dissociated by trypsinisation for 20 min at 37° C. (Trypsin EDTA 1×; Invitrogen) diluted in PBS without calcium and magnesium. The reaction is stopped by the addition of Dulbecco's modified Eagle's medium (DMEM; Invitrogen) containing DNAase I grade II (0.1 mg/ml; Roche Diagnostics) and 10% of foetal calf serum (FCS; Invitrogen). Cells are then mechanically dissociated by 3 passages through a 10 ml pipette. Cells are then centrifuged at 180×g for 10 min at 10° C. […] Viable cells are counted in a Neubauer cytometer using the trypan blue exclusion test. Cells are seeded at a density of 30,00-cells/well in 96-well plates (wells are pre-coated with poly-L-lysine (10 μg/ml; […] After 6 days of culture, cells are incubated with drugs (5 concentrations). After 1 hour, cells are intoxicated by 20 μM of β-amyloid (25-35; Sigma) in defined medium without BDNF but together with drugs. Cortical neurons are intoxicated for 2 days. After 2 days of culture, the supernatant is collected and analyzed with the Cytotoxicity Detection Kit (LDH, Roche Applied Sciences). This colorimetric assay for the quantification of cell death is based on the measurement of lactate dehydrogenase (LDH) activity released from the cytosol of damaged cells into the supernatant. The optic density (DO) is assessed by spectrophotometer at 492 nm wavelength by a multiscan apparatus (Thermo, Ref Ascent). […] Two days after this incubation, LDH release in the culture medium is quantified, reflecting the level of cell death.

SMILES	Prevention of Aβ25-35 intoxication, neurite outgrowth (neurite length) [1]	Effect on Aβ1-42 intoxication, LDH release, drug alone [2]	Prevention of Aβ25-35 intoxication, cell viability (MTT) [3]	Prevention of Aβ25-35 intoxication, cell viability (MTT) ([3]; listed as prilocaine)	Prevention of Aβ25-35 intoxication, LDH release [4]
CC(=O)NCCCS(=O)(=O)O [Acamprosate]	significantly prevented	no significant effect	–	–	–
CCCNC(C)C(=O)Nc1ccccc1C (stereo not drawn) [Prilocain, Prilocaine]	–	–	significantly prevented	strong neuroprotective effect	–
NS(=O)(=O)Cc1noc2ccccc12 [Zonisamide]	significantly prevented	–	–	–	significantly prevented
